Literature values as cited in EP1156371A2, “Replenishing method of planographic printing plate developer” (FUJI PHOTO FILM CO., LTD., priority 2000, dated 2001).

Conditions: dissociation constant of weak acid, aqueous solution

pKa | Compound
12.05 | O=Cc1ccncc1 [pyridine-4-aldehyde]
11.27 | Oc1cccc(O)c1 [resorcinol]
12.86 | c1ccc2[nH]cnc2c1 [benzimidazole]
12.56 | Nc1ncnc2c1ncn2[C@@H]1O[C@H](CO)[C@@H](O)[C@H]1O [adenosine]
11.56 | Oc1ccc(O)cc1 [hydroquinone]
12.84 | O=C(O)c1cc2ccccc2cc1O [3-hydroxy-2-naphthoic acid]
12.55 | picoline thioamide
11.37 | NC(=N\O)/C(N)=N/O [ethanediamide dioxime]
12.6 | Oc1ccccc1O [catechol]
12.68 | O=Cc1ccccn1 [pyridine-2-aldehyde]
11.82 | Oc1ccc(O)c(O)c1 [1,2,4-trihydroxybenzene]
11.34 | Oc1cccc(O)c1O [pyrogallol]
11.9 | CC(=NO)C(C)=NO [dimethyl glyoxime]
11.7 | O=C(O)c1cc(S(=O)(=O)O)ccc1O [sulfosalicylic acid]
12.5 | OC[C@H]1O[C@@H](n2cnc3c(O)ncnc32)[C@H](O)[C@@H]1O [inosine]
11.35 | CC(=NO)c1ccccc1 [acetophenone oxime]
12.10 | ON=Cc1ccccc1O [2-hydroxybenzaldehyde oxime]
12.8 | NC(=S)c1ccccc1 [thiobenzamide]

Compound | pKa
OCC(F)(F)C(F)F [2,2,3,3-tetrafluoropropanol-1] | 12.74
Cc1cccc(O)c1 [m-cresol] | 10.09
CC(C)=NO [acetoxime] | 12.42
CCC(C)=NO [2-butanone oxime] | 12.45
CC(P(=O)(O)O)P(=O)(O)O [1,1-ethylidene diphosphonic acid] | 11.54
Cc1ccccc1O [o-cresol] | 10.33
O=C1CC(=O)NC(=O)N1 [barbituric acid] | 12.5
CC(O)(P(=O)(O)O)P(=O)(O)O [1-hydroxy 1-ethylidene diphosphonate] | 11.52
O=C(O)c1ccc(O)c(O)c1 [3,4-duhydroxybenzoic acid] | 11.94
CC(C)(P(=O)(O)O)P(=O)(O)O [isopropylidene diphopshonic acid] | 12.10
